In brackets after ≈: the same amount, converted by molar mass. Like-named read-outs stand apart in the source and are kept apart here.
Legend:
[1] = Pharmacokinetics and brain uptake in mice after i.p. administration; type: in vivo, mouse (Albino Swiss); details: mouse Albino Swiss, 10 mg/kg i.p.; for AUC(0-t): ip
Procedure: Compounds were administered to mice at a dose of 10 mg/kg i.p. Plasma and tissue samples were collected at 0.25, 0.50, 1.0, 2.0, 4.0, 6.0, and 24 h. Plasma and tissue samples from all drug-treated animals were thawed at room temperature prior to use. The standard protocol for sample preparation was used: 200 μL of acetonitrile was added to the Eppendorf tubes with 50 μL of studied plasma samples or tissue homogenate. Samples were mixed for 5 min on a mixer at 25 °C and 1400 rpm. The tubes were then centrifuged at 2000× g for 15 min at 4 °C. A total of 180 μL of each supernatant was transferred to a plate well. Finally, each sample was injected into the LC–MS column. Calibration curve serial dilution method: Plasma was spiked with a standard at different concentrations. Acetonitrile was added. After mixing and centrifugation, the supernatant was collected.
Chromatographic conditions. Plasma and tissue samples from all drug-treated animals at selected time points were analyzed using a previously developed nonvalidated LC–MS/MS method. […] The LC–MS analysis was carried out on a Bruker amaZon SL mass spectrometer using the positive/negative ion ESI mode. Chromatographic separation was achieved on an Ascentis Express C18 column (5 cm × 2.1 mm, 2.7 μM, Supelco Technologies) at room temperature with a thermostatted column oven. A gradient elution of eluents A (acetonitrile (LiChrosolv, Reag. Ph Eur) + 0.1% formic acid (Sigma Aldrich, 98–100%)) and B (water + 0.1% formic acid) were used for separation. The flow rate was set at 1 mL/min. The injection volume was 20 μL, and the time of injection was 4 min.
Mass spectrometric conditions. An ion trap mass spectrometer (Bruker amaZon SL, Bruker, Bremen, Germany) was equipped with an electrospray source operating in the positive/negative ion mode. Data were collected and processed using Bruker Quant Analysis (Bruker, Bremen, Germany) software. A quantification of the analytes was performed in the SIM mode.

[2] = Kinetic solubility assay in HBSS buffer; type: physicochemical; details: aqueous buffer, kinetic from dmso stock; Hanks-HEPES (HBSS buffer), pH 7.4; read-out: KS (kinetic solubility)
Procedure: The kinetic solubility assay was performed to determine the solubility of the compounds in the in vitro assay conditions. The assay investigated the solubility based on the precipitation process in the HBSS buffer. For the preparation of the assay buffer, the following compounds were dissolved in 800 mL purified water: • − 130 mM sodium chloride, NaCl (7.600 g); • − 5.4 mM potassium chloride, KCl (0.403 g); • − 0.8 mM magnesium sulfate, MgSO4 × 7H2O (0.197 g); • − 0.9 mM sodium phosphate monobasic, NaH2PO4 × 2H2O (0.140 g); • − 25 mM D-glucose (4.500 g); • − 20 mM HEPES sodium salt (5.210 g).
The buffer was adjusted to pH 7.4, and the following compound was added to the mixture: • − 1.8 mM calcium chloride, CaCl2 × 2H2O (0.265 g).
The total volume was adjusted to 1000 mL.
The investigated compounds were diluted (in triplicate) with the HBSS buffer at pH 7.4 to a final concentration of 500 μM.
The mixture was shaken on a filter plate at 500 rpm for 1.5 h at RT. After incubation, the filter plate was placed inside a vacuum manifold and filtrated. Samples were collected and the concentration of the filtrate was determined spectrophotometrically by measuring the UV–VIS absorption spectrum. Concentrations were calculated based on equations resulting from the calibration curves (in duplicates, 8 calibration points, dilution Factor ×2, 500 µM → 3.91 µM, including blank sample).

[3] = Metabolic stability in mouse microsomal fraction; type: in vitro ADME; details: 1 µM, mouse microsomes 0.3 mg/mL, NADPH-regenerating system
Procedure: A metabolic stability assay was performed using a mouse microsomal fraction (phase I of metabolism) obtained from XenoTech (Kansas City, MO, USA). Compounds for metabolic stability testing were prepared as 10 mM stock solutions in DMSO. Compounds were incubated in triplicate at a 1 µM initial concentration with the microsomal fraction in the presence of NRS (NADPH-regenerating system, 1.3 mM). The final microsomal incubation (0.3 mg/mL) contained the components mentioned below in a pH 7.4 phosphate buffer. Control incubations were conducted without cofactors. The reference compound verapamil was used as a positive control. Incubations were carried out for 1 h on 96-well plates using a heated (+37 °C) orbital shaker (350 rpm). After incubation, the reaction was quenched through the addition of cold acetonitrile. The plate containing the samples was centrifuged at 2000 rpm for 15 min at 4 °C. The supernatants were analyzed using LC–MS.
The HPLC–MS consisted of a Dionex, Ultimate 3000 HPLC, and a Bruker Daltonics amaZon SL mass spectrometer (ESI-IT). The conditions were as follows: Column HPLC Ascentis Express C18 (5 cm × 2.1 mm, 2.7 µm) and an injection volume of 20 µL. An acetonitrile gradient was used with 0.1% formic acid in water at a constant flow rate of 1 mL/min. The programming was as follows: 0–0.5 min 5% ACN, 0.5–3.0 increase of 5–95%, 3.0–3.3 remaining at 95% ACN, 3.3–3.4 min decrease of 95–5% ACN, and 3.4–4.0 min 5% ACN. Samples were analyzed in a single-ion monitoring scan mode in positive mode. The conditions of the main parameters were as follows: a trap drive of 48.2, capillary exit voltage of 140.0 V, dry temperature (set) of 300 °C, nebulizer pressure (set) of 40.00 psi, dry gas flow (set) of 9.00 L/min HV capillary voltage of −4500 V, HV end-plate offset voltage of −500 V.
The percent loss of compounds was calculated through the normalization of the peak area against time 0, where the peak area at T0 was 100%. The elimination rate constant (h) was determined from the plot of ln (percent loss of compound) as a time function and equal to the minor value of the linear curve slope.

[4] = test system: animal models of schizophrenia; details: cited from earlier work
[5] = target: T1, recombinant human mGlu7 receptor (FAST-0154C) (Homo sapiens, UniProt Q14831); test: NAM mGlu7 activity on CHO-K1 cell line, cAMP HTRF (EuroscreenFast protocol); type: cell-based; details: CHO-K1 human mGlu7, agonist L-AP4 at EC80
T1 construct: host or cells: CHO-K1
Description: with inducible expression of human mGlu7 receptor. […]
2.2. NAM mGlu7 receptor activity on CHO-K1 cell line according to EuroscreenFast protocol
ALX-065 and ALX-171 were testing for negative allosteric modulator (NAM) activity on alternative […]
mGlu7 cell line (recombinant human mGlu7 receptor (FAST-0154C) using cAMP HTRF functional assay) […]
by EuroscreenFast company according to the provided methodology.
Receptor Accession Cell line Reference Reference
Number agonist antagonist
Compounds were tested for NAM activity at the human mGlu7 receptor (FAST-0154C) in dose […]
response and in duplicates (range concentration: 1 nM – 25 µM) […]
cAMP HTRF assay for Gi coupled receptor
CHO-K1 cells expressing recombinant human mGlu7 receptor (FAST-0154C) grown prior to the test […]
inmedia without antibiotic are detached by gentle flushing with PBS-EDTA (5 mM EDTA), recovered […]
by centrifugation and resuspended in assay buffer (KRH: 5 mM KCl, 1.25 mM MgSO4, 124 mM NaCl, […]
25 mM HEPES, 13.3 mM Glucose, 1.25 mM KH2PO4, 1.45 mM CaCl2, 0.5 g/L BSA, supplemented with 1 […]
Dose response curves are performed in parallel with the reference compounds.
For antagonist/NAM test (96 well): 12 µl of cells are mixed with 6 µl of the test compound at increasing concentrations and then incubated 10 min. Thereafter 6 µl of the mix of the forskolin and reference agonist is added at a final concentration corresponding to the historical EC80. The plates are then incubated for 30 min at room temperature. After addition of the lysis buffer and 1 hour incubation, cAMP concentrations are estimated, according to the manufacturer specification, with the HTRF kit. […]

T1 sequence (Q14831 35-915): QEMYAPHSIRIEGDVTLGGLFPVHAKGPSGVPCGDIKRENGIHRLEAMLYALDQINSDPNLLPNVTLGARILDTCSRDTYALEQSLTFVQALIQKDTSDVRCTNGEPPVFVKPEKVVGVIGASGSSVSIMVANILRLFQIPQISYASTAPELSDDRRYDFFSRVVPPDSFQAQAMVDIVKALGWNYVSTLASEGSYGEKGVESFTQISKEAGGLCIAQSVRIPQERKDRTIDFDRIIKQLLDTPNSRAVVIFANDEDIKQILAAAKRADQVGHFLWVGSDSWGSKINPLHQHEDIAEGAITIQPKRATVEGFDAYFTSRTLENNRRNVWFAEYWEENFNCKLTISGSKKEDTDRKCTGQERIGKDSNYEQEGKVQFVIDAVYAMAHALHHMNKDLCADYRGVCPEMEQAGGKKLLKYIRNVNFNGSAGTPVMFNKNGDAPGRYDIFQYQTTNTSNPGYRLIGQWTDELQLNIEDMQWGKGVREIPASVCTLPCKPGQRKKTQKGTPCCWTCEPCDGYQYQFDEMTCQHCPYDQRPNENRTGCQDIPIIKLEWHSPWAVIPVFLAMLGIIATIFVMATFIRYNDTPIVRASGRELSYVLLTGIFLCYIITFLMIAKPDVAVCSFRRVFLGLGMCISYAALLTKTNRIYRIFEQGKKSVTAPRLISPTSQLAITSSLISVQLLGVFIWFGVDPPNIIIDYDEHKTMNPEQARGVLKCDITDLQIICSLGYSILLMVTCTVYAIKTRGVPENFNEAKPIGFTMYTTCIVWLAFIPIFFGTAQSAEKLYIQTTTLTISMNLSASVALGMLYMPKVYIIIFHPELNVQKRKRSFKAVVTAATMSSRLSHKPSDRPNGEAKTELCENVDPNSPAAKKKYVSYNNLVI

COc1ccc(-c2cc3onc(-c4ccncc4)c3c(=O)n2C)cc1 [MMPIP, reference compound]
AUC(0-t) ([1]; brain, read-out: AUC0-t, brain): 8.98 µM·h
AUC(0-t) ([1]; plasma, read-out: AUC0-t, plasma): 13.5 µM·h
Cmax, brain ([1]; brain): 5.42 µM/L
Tmax, plasma ([1]; plasma): 15 min
solubility kinetic at 1.5 h [2]: 5.6 µM (≈ 1.87 µg/mL)
MML (metabolic stability liver microsome mouse) [3]: 49.78 % remaining after 60 min
MK-801-induced disruptions in social interaction [4]: not observed
prepulse inhibition (PPI) [4]: not observed
activity in animal models of schizophrenia ([4]; mGlu7 NAMs): antipsychotic activity
% inhibition at maximal concentration ([5]; range 1 nM – 25 µM): 100%
IC50 ([5]; read-out: IC50 (CHO-K1, Figure S4)): 0.27 µM

— article PMC9916658, “Design and Synthesis of New Quinazolin-4-one Derivatives with Negative mGlu7 Receptor Modulation Activity and Antipsychotic-Like Properties” (International Journal of Molecular Sciences, 2023)
